# Measurements published in US20060275299A1, “Use of protein tyrosine phosphatase inhibitors for prevention and/or treatment of cancer” (priority 2002, published 2006).
# Assays:
# Format in all cases: cell-based, human
# Sap-1 [1] = test: Chemical cross-linking of Sap-1 constructs in transfected COS7 cells (Western blot); settings: for cross-linking of ECD-deleted Sap-1 / cross-linking of full-length (FL) Sap-1: anti-HA Western blot, FIG. 5
# Procedure: COS 7 cells were transfected with the indicated construct and left for 24 hours at 37° C. Medium was changed and a solution of BS3 (Pierce) in PBS (2.5 mg/ml) or PBS alone was added, and left for 1 hour at 4° C. The cross-linking reaction was stopped by the addition of PBS that contained 0.15 M Tris pH 7.5 for 15 minutes at 4° C. Cells were finally lysed and the protein content was used for further analysis. The treatment with DSS (Pierce) was the same except that the product was dissolved in DMSO at a concentration of 25 mM (10×). It was then diluted in PBS and cells were incubated with 0.1×DMSO.
# WiDr cells = test: Streptolysin transfection of antisense ODN and BrdU proliferation assay; settings: BrdU, streptolysin-O, ODN 1 mM final
# Sap-1 [2] = test: DTT treatment of Sap-1 overexpressing COS7 cells, multimers on non-reducing gel
# Procedure: Cells treated with DTT were serum-starved 8 hours after transfection (with PTP-Sap1 constructs or vector), and then incubated for 30 minutes in serum-free medium with various amount of DTT (Sigma). Before lysis in a buffer containing 150 mM iodoacetamide (“IODA” Sigma), cells were washed with ice cold PBS containing 50 mM iodoacetamide in order to block the free DTT. Samples were run under reducing and non-reducing conditions, with or without β-mercaptoethanol in the sample buffer, respectively.
molecule,measurement,setting,value
"O=C(CCCCCCC(=O)ON1C(=O)CCC1=O)ON1C(=O)CCC1=O [DSS, Di-Succinimidyl-Suberate]",cross-linking of membrane-associated ECD-deleted Sap-1 lacking transmembrane domain (lck myristoylation peptide),Sap-1 [1]; FIG. 5B right panel,could not be cross-linked
same,cross-linking of ECD-deleted Sap-1,Sap-1 [1],but not ECD-deleted Sap-1
same,cross-linking of full-length (FL) Sap-1,Sap-1 [1],able to cross-link
AS2: antisense ODN to PTP-SAP1 mRNA: TGACCCGGGTCCAAGGCCAT (antisense TGACCCGGGTCCAAGGCCAT; chemistry not given here),reduction of the proliferation,WiDr cells,20%
"O=C(CCCCCCC(=O)ON1C(=O)CC(S(=O)(=O)O)C1=O)ON1C(=O)CC(S(=O)(=O)O)C1=O (stereo not drawn) [BS3, Bis-Sulfosuccinimidyl-Suberate]",cross-linking of ECD-deleted Sap-1,Sap-1 [1],no effect
same,cross-linking of full-length (FL) Sap-1,Sap-1 [1],induces the formation of a complex with high MW
same,cross-linking of FLEX-Cterm Sap-1 construct,"Sap-1 [1]; anti-Myc Western blot, FIG. 8A",efficiently cross-linked
"O[C@H](CS)[C@H](O)CS (racemic) [DTT, Dithiothreitol]",reversibility of multimer disruption,"Sap-1 [2]; 30 minutes at 50 mM DTT, washout, 15 minutes recovery without DTT",fully restored formation of the multimers
same,multimerized Sap-1 on non-reducing gel,"Sap-1 [2]; cells incubated 30 minutes in DTT, FIG. 6B",dose-dependent decrease
